The target in series [1] is Beta-1 adrenergic receptor (Homo sapiens, UniProt P08588). The experiment in a line: DRUGMATRIX: Adrenergic beta1 radioligand binding (ligand: [125I] Cyanopindolol). It is filed as cell membranes, CHO-K1, Membrane. Particulars: Not Active = under 50% inhibition at 10 µM.
Series [2] in a line: DRUGMATRIX: Sigma2 radioligand binding (ligand: [3H] Ifenprodil). The class given is cell membranes, Rattus norvegicus, Wistar, Brain, Membrane. To be noted: Not Active = under 50% inhibition at 10 µM.
Series [3] concerns the target T1, Muscarinic acetylcholine receptor M2 (Homo sapiens, UniProt P08172). Also: in other assays of this panel Not Active means under 50% inhibition at 10 µM.
T1 sequence (P08172 whole entry): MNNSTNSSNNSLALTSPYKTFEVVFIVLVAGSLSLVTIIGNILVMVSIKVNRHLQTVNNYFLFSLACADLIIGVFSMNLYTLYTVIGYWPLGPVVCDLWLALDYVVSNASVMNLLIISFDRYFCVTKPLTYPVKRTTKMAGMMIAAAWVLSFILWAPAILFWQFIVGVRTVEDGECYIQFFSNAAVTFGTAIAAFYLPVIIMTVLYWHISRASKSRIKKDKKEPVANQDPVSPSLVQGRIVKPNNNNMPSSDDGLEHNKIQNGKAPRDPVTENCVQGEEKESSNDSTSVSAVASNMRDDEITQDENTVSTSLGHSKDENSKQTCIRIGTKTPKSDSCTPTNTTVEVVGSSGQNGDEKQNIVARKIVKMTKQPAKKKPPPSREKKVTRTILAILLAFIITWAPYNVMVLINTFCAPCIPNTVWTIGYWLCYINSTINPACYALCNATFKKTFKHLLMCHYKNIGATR
The class given is cell membranes, CHO-K1, Membrane. Particulars: cho-k1.

Series [4] is described as follows: DRUGMATRIX: Phorbol Ester radioligand binding (ligand: [3H] PDBu). It is filed as cell membranes, Mus musculus, ICR, Brain, Membrane. Particulars: Not Active = under 50% inhibition at 10 µM.
The next series concerns the target Cytochrome P450 2C9 (Homo sapiens, UniProt P11712). Particulars: bti-tn-5b1-4. Also: in other assays of this panel Not Active means under 50% inhibition at 10 µM.
The target in a further series is Cytochrome P450 3A4 (Homo sapiens, UniProt P08684). Particulars: bti-tn-5b1-4. Also: in other assays of this panel Not Active means under 50% inhibition at 10 µM.

Results on 20 molecules are retold here after ChEMBL document CHEMBL1909046, “DrugMatrix in vitro pharmacology data”.

Broadly, the IC50 is the concentration that inhibits the measured activity by half. A word on the Ki: it is a measure of affinity in units of concentration, obtained from inhibition or displacement.

Sequence of Beta-1 adrenergic receptor (P08588 whole entry): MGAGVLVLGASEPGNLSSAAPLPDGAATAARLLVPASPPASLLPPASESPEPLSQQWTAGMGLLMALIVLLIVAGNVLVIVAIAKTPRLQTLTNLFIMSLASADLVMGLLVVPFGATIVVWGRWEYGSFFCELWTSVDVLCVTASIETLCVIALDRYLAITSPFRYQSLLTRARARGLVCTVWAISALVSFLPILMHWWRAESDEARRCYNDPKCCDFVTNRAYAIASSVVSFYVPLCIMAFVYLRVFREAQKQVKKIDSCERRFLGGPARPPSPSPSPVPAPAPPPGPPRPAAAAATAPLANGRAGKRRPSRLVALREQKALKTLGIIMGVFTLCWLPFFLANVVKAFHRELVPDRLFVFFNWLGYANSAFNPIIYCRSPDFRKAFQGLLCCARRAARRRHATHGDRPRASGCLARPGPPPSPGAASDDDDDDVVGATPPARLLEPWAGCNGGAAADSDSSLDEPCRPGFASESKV
Sequence of Cytochrome P450 2C9 (P11712 whole entry): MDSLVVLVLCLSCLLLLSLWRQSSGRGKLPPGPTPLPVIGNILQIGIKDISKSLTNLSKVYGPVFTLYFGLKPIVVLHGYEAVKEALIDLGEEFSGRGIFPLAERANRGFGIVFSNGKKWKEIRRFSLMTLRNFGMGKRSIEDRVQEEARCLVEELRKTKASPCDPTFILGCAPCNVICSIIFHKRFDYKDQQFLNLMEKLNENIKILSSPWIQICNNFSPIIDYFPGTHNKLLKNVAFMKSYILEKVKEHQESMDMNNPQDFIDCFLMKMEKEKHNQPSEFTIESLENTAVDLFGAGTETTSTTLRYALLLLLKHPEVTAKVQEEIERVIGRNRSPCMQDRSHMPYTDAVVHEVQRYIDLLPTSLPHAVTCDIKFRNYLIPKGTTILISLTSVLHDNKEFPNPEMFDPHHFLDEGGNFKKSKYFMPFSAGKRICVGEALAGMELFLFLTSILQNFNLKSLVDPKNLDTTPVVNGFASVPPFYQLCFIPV
Sequence of Cytochrome P450 3A4 (P08684 whole entry): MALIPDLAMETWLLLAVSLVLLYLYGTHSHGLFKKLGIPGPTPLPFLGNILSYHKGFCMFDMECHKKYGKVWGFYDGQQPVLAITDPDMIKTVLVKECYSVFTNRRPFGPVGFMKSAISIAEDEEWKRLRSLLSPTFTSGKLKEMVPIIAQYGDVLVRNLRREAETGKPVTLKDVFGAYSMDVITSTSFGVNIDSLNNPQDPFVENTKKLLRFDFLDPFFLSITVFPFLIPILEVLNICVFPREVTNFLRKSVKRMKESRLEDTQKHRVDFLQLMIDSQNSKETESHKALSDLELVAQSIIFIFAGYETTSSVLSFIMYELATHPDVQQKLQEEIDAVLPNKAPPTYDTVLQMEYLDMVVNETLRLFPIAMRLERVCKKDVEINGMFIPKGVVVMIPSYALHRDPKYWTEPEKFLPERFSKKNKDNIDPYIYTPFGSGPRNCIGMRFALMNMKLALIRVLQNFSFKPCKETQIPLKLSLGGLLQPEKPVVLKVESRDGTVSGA

Turning to `COc1cc2c3cc1Oc1cc(ccc1O)C[C@@H]1c4c(cc(OC)c(O)c4Oc4ccc(cc4)C[C@@H]3N(C)CC2)CC[N+]1(C)C.[Cl-]`, the IC50 entry (in series [1] (cho-k1); in series [2]; in series [3]; in series [4]; at Cytochrome P450 2C9; at Cytochrome P450 3A4) was “Not Active” in each case. Moreover, the inhibition constant (Ki) entry (in series [2]; in series [4]; on Cytochrome P450 2C9; on Cytochrome P450 3A4) was “Not Active” in each case.
Consider `CN(Cc1ccc(C(C)(C)C)cc1)Cc1cccc2ccccc12` [BUTENAFINE], for which the IC50 entry in series [1] (cho-k1) was “Not Active”; in series [2] (read-out: IC50), 255 nM; in series [3] it was “Not Active”; in series [4], “Not Active”; on Cytochrome P450 2C9, “Not Active”; against Cytochrome P450 3A4, “Not Active”. Further, the Ki in series [2] (read-out: Ki) is 157 nM; in series [4], “Not Active”; on Cytochrome P450 2C9 it was “Not Active”; at Cytochrome P450 3A4 it was “Not Active”.
For the molecule `Sc1ncnc2nc[nH]c12` [MERCAPTOPURINE ANHYDROUS], the concentration for half-maximal inhibition (IC50) result (in series [1] (cho-k1); in series [2]; in series [3]; in series [4]; at Cytochrome P450 2C9; against Cytochrome P450 3A4) was “Not Active” throughout. In addition, the Ki result (in series [2]; in series [4]; on Cytochrome P450 2C9; on Cytochrome P450 3A4) was “Not Active” each time.
With `CC(C)(C)NCC(O)c1cc(Cl)c(N)c(Cl)c1` (centres undefined) [CLENBUTEROL], the IC50 in series [1] (read-out: IC50) was 120 nM; in series [2], “Not Active”; in series [3], “Not Active”; in series [4], “Not Active”; against Cytochrome P450 2C9 it was “Not Active”; against Cytochrome P450 3A4, “Not Active”. Also, the Ki in series [1] (read-out: Ki) is 69 nM; in series [2], “Not Active”; in series [4], “Not Active”; at Cytochrome P450 2C9, “Not Active”; at Cytochrome P450 3A4 it was “Not Active”.
Consider `Nc1nc2c(ncn2COCCO)c(=O)[nH]1` [ACYCLOVIR], for which the IC50 entry (in series [1] (cho-k1); in series [2]; in series [3]; in series [4]; against Cytochrome P450 2C9; against Cytochrome P450 3A4) was “Not Active” throughout. The inhibition constant Ki result (in series [2]; in series [4]; at Cytochrome P450 2C9; at Cytochrome P450 3A4) was “Not Active” each time.
Take `c1ccc2c(c1)c1cccc3ccc4cccc2c4c31` [BENZO[E]PYRENE]: the IC50 entry (in series [1] (cho-k1); in series [2]; in series [3]; in series [4]; on Cytochrome P450 2C9; against Cytochrome P450 3A4) was “Not Active” throughout. Besides, the Ki entry (in series [2]; in series [4]; at Cytochrome P450 2C9; at Cytochrome P450 3A4) was “Not Active” each time.
`O=C(O)CCCc1ccc(N(CCCl)CCCl)cc1` [CHLORAMBUCIL]: the IC50 result (in series [1] (cho-k1); in series [2]; in series [3]; in series [4]; on Cytochrome P450 2C9; on Cytochrome P450 3A4) was “Not Active” each time. Further, the Ki entry (in series [2]; in series [4]; at Cytochrome P450 2C9; on Cytochrome P450 3A4) was “Not Active” throughout.
For the molecule `Cc1ccc(N(CC2=NCCN2)c2cccc(O)c2)cc1` [PHENTOLAMINE], the IC50 result (in series [1] (cho-k1); in series [2]; in series [3]; in series [4]; at Cytochrome P450 2C9) was “Not Active” each time. Besides, the Ki result (in series [2]; in series [4]; on Cytochrome P450 2C9) was “Not Active” each time.
With `CC1(C)O[C@@H]2C[C@H]3[C@@H]4CCC5=CC(=O)CC[C@]5(C)[C@@]4(F)[C@@H](O)C[C@]3(C)[C@]2(C(=O)CCl)O1` [HALCINONIDE], the IC50 result (in series [1] (cho-k1); in series [2]; in series [3]; in series [4]; against Cytochrome P450 2C9; at Cytochrome P450 3A4) was “Not Active” in each case. The Ki entry (in series [2]; in series [4]; on Cytochrome P450 2C9; on Cytochrome P450 3A4) was “Not Active” each time.
With `CC(C)[C@H]1C(=O)N2CCC[C@H]2[C@]2(O)O[C@](NC(=O)[C@@H]3C=C4c5cccc6[nH]cc(c56)C[C@H]4N(C)C3)(C(C)C)C(=O)N12` [ERGOCORNINE], the IC50 entry (in series [1] (cho-k1); in series [2]; in series [3]; in series [4]; at Cytochrome P450 2C9) was “Not Active” in each case. For the same molecule, the inhibition constant Ki result (in series [2]; in series [4]; at Cytochrome P450 2C9) was “Not Active” each time.
Take `CC(C)CN(C[C@@H](O)[C@H](Cc1ccccc1)NC(=O)O[C@H]1CCOC1)S(=O)(=O)c1ccc(N)cc1`: the IC50 entry (in series [1] (cho-k1); in series [2]; in series [3]; in series [4]; at Cytochrome P450 2C9) was “Not Active” in each case. Besides, the inhibition constant Ki result (in series [2]; in series [4]; on Cytochrome P450 2C9) was “Not Active” each time.
On to `CC(=O)O[C@@]12CO[C@@H]1C[C@H](O)[C@@]1(C)C(=O)[C@H](O)C3=C(C)[C@@H](OC(=O)[C@H](O)[C@@H](NC(=O)OC(C)(C)C)c4ccccc4)C[C@@](O)([C@@H](OC(=O)c4ccccc4)[C@H]21)C3(C)C.O.O.O` [DOCETAXEL], for which the IC50 entry (in series [1] (cho-k1); in series [2]; in series [3]; in series [4]; on Cytochrome P450 2C9) was “Not Active” each time. Also, the Ki entry (in series [2]; in series [4]; on Cytochrome P450 2C9) was “Not Active” in each case.
Take `CC(C)[C@@]1(NC(=O)[C@@H]2C[C@@H]3c4cccc5[nH]cc(c45)C[C@H]3N(C)C2)O[C@@]2(O)[C@@H]3CCCN3C(=O)[C@H](Cc3ccccc3)N2C1=O.CS(=O)(=O)O` [DIHYDROERGOCRISTINE MESYLATE]: the IC50 entry in series [1] (cho-k1), in series [2], in series [3] and in series [4] was “Not Active” throughout. Further, the inhibition constant (Ki) entry in series [2] and in series [4] was “Not Active” in each case.
As for `Nc1c(Br)cc(Br)cc1CN[C@H]1CC[C@H](O)CC1` [AMBROXOL], the IC50 entry in series [1] (cho-k1), in series [2], in series [3] and in series [4] was “Not Active” each time. Besides, the Ki entry in series [2] and in series [4] was “Not Active” in each case.
`CCC(C)n1ncn(-c2ccc(N3CCN(c4ccc(OCC5COC(Cn6cncn6)(c6ccc(Cl)cc6Cl)O5)cc4)CC3)cc2)c1=O` (centres undefined) [ITRACONAZOLE]: the IC50 result (in series [1] (cho-k1); in series [2]; in series [3]; in series [4]; against Cytochrome P450 2C9) was “Not Active” each time. Besides, the inhibitory constant (Ki) result (in series [2]; in series [4]; at Cytochrome P450 2C9) was “Not Active” in each case.
`Cc1cc(C(C#N)c2ccc(Cl)cc2)c(Cl)cc1NC(=O)c1cc(I)cc(I)c1O` (centres undefined) [CLOSANTEL]: the 50% inhibitory concentration (IC50) entry in series [1] (cho-k1), in series [2], in series [3] and in series [4] was “Not Active” throughout. Also, the inhibition constant (Ki) result in series [2] and in series [4] was “Not Active” each time.
For the molecule `CC1(C)S[C@@H]2[C@H](NC(=O)Cc3ccccc3)C(=O)N2[C@H]1C(=O)O` [PENICILLIN G], the IC50 entry in series [1] (cho-k1), in series [2], in series [3] and in series [4] was “Not Active” in each case. The inhibition constant Ki result in series [2] and in series [4] was “Not Active” throughout.
With `CCCCc1nc(Cl)c(CO)n1Cc1ccc(-c2ccccc2-c2nnn[nH]2)cc1` [LOSARTAN], the concentration for half-maximal inhibition (IC50) result (in series [1] (cho-k1); in series [2]; in series [3]; in series [4]; at Cytochrome P450 3A4) was “Not Active” in each case. The inhibitory constant (Ki) entry (in series [2]; in series [4]; on Cytochrome P450 3A4) was “Not Active” in each case.
For the molecule `Cc1onc(-c2ccccc2Cl)c1C(=O)N[C@@H]1C(=O)N2[C@@H]1SC(C)(C)[C@@H]2C(=O)O` [CLOXACILLIN], the IC50 result (in series [1] (cho-k1); in series [2]; in series [3]; in series [4]; against Cytochrome P450 3A4) was “Not Active” in each case. Further, the Ki entry (in series [2]; in series [4]; at Cytochrome P450 3A4) was “Not Active” each time.
As to `O=c1oc2ccccc2c(O)c1Cc1c(O)c2ccccc2oc1=O` [DICUMAROL], the IC50 result (in series [1] (cho-k1); in series [2]; in series [3]; in series [4]; against Cytochrome P450 3A4) was “Not Active” each time. For the same molecule, the Ki entry (in series [2]; in series [4]; at Cytochrome P450 3A4) was “Not Active” each time.
